The source of these data is article PMC11133627, “CATH-2-derived antimicrobial peptide inhibits multidrug-resistant Escherichia coli infection in chickens” (Frontiers in Cellular and Infection Microbiology, 2024).

In test [1] the test system is E. coli (ATCC 8739). Format: cell-based, Escherichia coli. The following applies: ATCC 8739, 1 h. Here is the method: The MICs of the AMPs against E. coli (ATCC 8739) at different temperatures and physiological salt concentrations were evaluated. The thermal stability of the AMPs was assessed by incubating them at a concentration of 500 μg/mL for 1h at 0, 37, and 100°C, using untreated AMPs as a control. The salt ion stability of the AMPs was determined by incubating them at a concentration of 500 μg/mL in solutions of NaCl (150 mM), KCl (4.5 mM), MgCl2 (1 mM), and CaCl2 (2.5 mM) for 1h, using untreated samples as controls. The changes in the MICs of the AMPs were assessed following these experimental procedures.

The test system of test [2] is E. coli clinical isolate E12. Description: microbe, parasite or virus in culture. The test is classed as cell-based, Escherichia coli. The following applies: for MIC against E. coli E12: clinical isolate E12, 18 h; for MBC against E. coli E12: clinical isolate E12, 24 h. Here is the method:
(§1) The minimum inhibitory concentrations (MICs) of the AMPs were determined using the microbroth dilution technique ([van Harten et al., 2021]). One hundred microliters of bacterial suspension at a concentration of 1×10^6 CFU/mL was pipetted into a 96-well plate. Then, 100 μL of AMP or gentamicin at various concentrations was added, while the bacterial suspension without AMPs and blank medium were used as controls.

For test [3], the system named is E. coli clinical isolate E9. Description: microbe, parasite or virus in culture. Format: cell-based, Escherichia coli. The following applies: for MIC against E. coli E9: clinical isolate E9, 18 h; for MBC against E. coli E9: clinical isolate E9, 24 h. The method, then:
as §1

Test [4] has as its system E. coli clinical isolate E16. Put plainly: microbe, parasite or virus in culture. The following applies: for MIC against E. coli E16: clinical isolate E16, 18 h; for MBC against E. coli E16: clinical isolate E16, 24 h. The test is classed as cell-based, Escherichia coli. Here is the method:
as §1

Test [5] deals with E. coli clinical isolate E14. Put plainly: microbe, parasite or virus in culture. Format: cell-based, Escherichia coli. The following applies: for MIC against E. coli E14: clinical isolate E14, 18 h; for MBC against E. coli E14: clinical isolate E14, 24 h. The method, then: as §1
Test [6] has as its system E. coli (ATCC 8739). Description: microbe, parasite or virus in culture. The test is classed as cell-based, Escherichia coli. The following applies: for MIC against E. coli ATCC 8739: ATCC 8739, 18 h; for MBC against E. coli ATCC 8739: ATCC 8739, 24 h. Here is the method:
as §1

Test [7] relates to E. coli clinical isolate E18. Put plainly: microbe, parasite or virus in culture. The test is classed as cell-based, Escherichia coli. The following applies: for MIC against E. coli E18: clinical isolate E18, 18 h; for MBC against E. coli E18: clinical isolate E18, 24 h. The method, then: as §1
Test [8] has as its system E. coli clinical isolate E1. Description: microbe, parasite or virus in culture. The following applies: for MIC against E. coli E1: clinical isolate E1, 18 h; for MBC against E. coli E1: clinical isolate E1, 24 h. The method, then: as §1

Ends that are not written are not given here.

With RFGRHLRKIIRFRIK [C2-3], in the test with E. coli (ATCC 8739) [1], the “MIC against E. coli (ATCC 8739), Salt Stability CaCl2 (2.5 mM)” value (from here on “MIC against E. coli … (2.5 mM)”) amounted to 8 µg/mL; the “MIC against E. coli (ATCC 8739), Salt Stability KCl (4.5 mM)” value (from here on “MIC against E. coli … (4.5 mM)”) was 4 µg/mL; the “MIC against E. coli (ATCC 8739), Salt Stability MgCl2 (1 mM)” value (“MIC against E. coli … (1 mM)” below) was determined as 4 µg/mL; the “MIC against E. coli (ATCC 8739), Salt Stability NaCl (150 mM)” value (shortened to “MIC against E. coli … (150 mM)”) is 16 µg/mL. Moreover, in the test on E. coli (ATCC 8739) [1], the “MIC against E. coli (ATCC 8739), Thermal Stability 0°C” value (from here on “MIC … Thermal Stability 0°C”) turned out to be 16 µg/mL; the “MIC against E. coli (ATCC 8739), Thermal Stability 37°C” value (from here on “MIC … Thermal Stability 37°C”) turned out to be 16 µg/mL; the “MIC against E. coli (ATCC 8739), Thermal Stability 100°C” value (shortened to “MIC … Thermal Stability 100°C”) was 8 µg/mL. In test [2], the “MIC against E. coli E12” value is 1 µg/mL and the “MBC against E. coli E12” value was determined as 1 µg/mL. Moreover, in test [3], the “MIC against E. coli E9” value was 2 µg/mL and the “MBC against E. coli E9” value worked out at 4 µg/mL. Further, in test [4], the “MIC against E. coli E16” value stood at 16 µg/mL and the “MBC against E. coli E16” value is 64 µg/mL. Besides, in test [5], the “MIC against E. coli E14” value turned out to be 8 µg/mL and the “MBC against E. coli E14” value worked out at 8 µg/mL. In the test on E. coli (ATCC 8739) [6], the “MIC against E. coli ATCC 8739” value was found to be 16 µg/mL and the “MBC against E. coli ATCC 8739” value was found to be 16 µg/mL. In test [7], the “MIC against E. coli E18” value was determined as 16 µg/mL and the “MBC against E. coli E18” value worked out at 32 µg/mL. Further, in test [8], the “MIC against E. coli E1” value was determined as 32 µg/mL and the “MBC against E. coli E1” value came to 64 µg/mL.
Turning to RFGRNLRKIRRFWPK [C2-4], in the test on E. coli (ATCC 8739) [1], the “MIC against E. coli … (2.5 mM)” value amounted to 32 µg/mL; the “MIC against E. coli … (4.5 mM)” value is 32 µg/mL; the “MIC against E. coli … (1 mM)” value turned out to be 16 µg/mL; the “MIC against E. coli … (150 mM)” value worked out at 32 µg/mL. In addition, in the test with E. coli (ATCC 8739) [1], the “MIC … Thermal Stability 0°C” value worked out at 16 µg/mL; the “MIC … Thermal Stability 37°C” value amounted to 16 µg/mL; the “MIC … Thermal Stability 100°C” value is 16 µg/mL. In addition, in test [2], the “MIC against E. coli E12” value came out at 16 µg/mL and the “MBC against E. coli E12” value is 32 µg/mL. For the same sequence, in test [3], the “MIC against E. coli E9” value turned out to be 64 µg/mL and the “MBC against E. coli E9” value turned out to be 128 µg/mL. Also, in test [4], the “MIC against E. coli E16” value came out at 64 µg/mL and the “MBC against E. coli E16” value was 64 µg/mL. In test [5], the “MIC against E. coli E14” value was 32 µg/mL and the “MBC against E. coli E14” value is 64 µg/mL. Besides, in the test with E. coli (ATCC 8739) [6], the “MIC against E. coli ATCC 8739” value came to 16 µg/mL and the “MBC against E. coli ATCC 8739” value amounted to 16 µg/mL. In addition, in test [7], the “MIC against E. coli E18” value stood at 128 µg/mL and the “MBC against E. coli E18” value was 128 µg/mL. In addition, in test [8], the “MIC against E. coli E1” value amounted to 128 µg/mL and the “MBC against E. coli E1” value was found to be 128 µg/mL.
With RFGRFLRKIRFFRLK [C2-5], in the test with E. coli (ATCC 8739) [1], the “MIC against E. coli … (2.5 mM)” value came out at 8 µg/mL; the “MIC against E. coli … (4.5 mM)” value worked out at 4 µg/mL; the “MIC against E. coli … (1 mM)” value was found to be 4 µg/mL; the “MIC against E. coli … (150 mM)” value is 4 µg/mL. Further, in the test with E. coli (ATCC 8739) [1], the “MIC … Thermal Stability 0°C” value stood at 1 µg/mL; the “MIC … Thermal Stability 37°C” value is 1 µg/mL; the “MIC … Thermal Stability 100°C” value is 4 µg/mL. Moreover, in test [2], the “MIC against E. coli E12” value was 8 µg/mL and the “MBC against E. coli E12” value was 8 µg/mL. Besides, in test [3], the “MIC against E. coli E9” value turned out to be 64 µg/mL and the “MBC against E. coli E9” value was 128 µg/mL. Further, in test [4], the “MIC against E. coli E16” value worked out at 16 µg/mL and the “MBC against E. coli E16” value came to 16 µg/mL. In addition, in test [5], the “MIC against E. coli E14” value was 8 µg/mL and the “MBC against E. coli E14” value was 8 µg/mL. Besides, in the test with E. coli (ATCC 8739) [6], the “MIC against E. coli ATCC 8739” value amounted to 1 µg/mL and the “MBC against E. coli ATCC 8739” value came to 1 µg/mL. For the same sequence, in test [7], the “MIC against E. coli E18” value stood at 16 µg/mL and the “MBC against E. coli E18” value came to 32 µg/mL. Moreover, in test [8], the “MIC against E. coli E1” value came out at 8 µg/mL and the “MBC against E. coli E1” value is 8 µg/mL.
Take “RFGRFLRKIRRFRPK [CATH-2 (1-15), reference compound]”: in the test with E. coli (ATCC 8739) [1], the “MIC against E. coli … (2.5 mM)” value is 64 µg/mL; the “MIC against E. coli … (4.5 mM)” value amounted to 16 µg/mL; the “MIC against E. coli … (1 mM)” value worked out at 16 µg/mL; the “MIC against E. coli … (150 mM)” value came out at 32 µg/mL. Further, in the test on E. coli (ATCC 8739) [1], the “MIC … Thermal Stability 0°C” value turned out to be 64 µg/mL; the “MIC … Thermal Stability 37°C” value was found to be 64 µg/mL; the “MIC … Thermal Stability 100°C” value was 32 µg/mL. Also, in test [2], the “MIC against E. coli E12” value came out at 8 µg/mL and the “MBC against E. coli E12” value amounted to 8 µg/mL. For the same sequence, in test [3], the “MIC against E. coli E9” value was determined as 4 µg/mL and the “MBC against E. coli E9” value worked out at 4 µg/mL. In test [4], the “MIC against E. coli E16” value came out at 32 µg/mL and the “MBC against E. coli E16” value stood at 64 µg/mL. The “MIC against E. coli E14” value in test [5] stood at 64 µg/mL. Besides, in the test with E. coli (ATCC 8739) [6], the “MIC against E. coli ATCC 8739” value was 64 µg/mL and the “MBC against E. coli ATCC 8739” value stood at 64 µg/mL. Moreover, in test [7], the “MIC against E. coli E18” value came out at 64 µg/mL and the “MBC against E. coli E18” value stood at 64 µg/mL.
